Assay results as given in ChEMBL document CHEMBL1142930, “Cyathane diterpenes from Sarcodon cyrneus and evaluation of their activities of neuritegenesis and nerve growth factor production” (2007).
The source made the active and inactive calls. The rule behind the calls is not given here.

Tests used:
[1] = Induction of NGF gene expression in human 1321N1 cells at 200 uM relative to control; format: functional
PC-12 = assay: Stimulation of neurite outgrowth in rat PC12 cells assessed as morphological change at 200 uM after 24 hrs; format: functional, cell-based

SMILES	Fold change [1]	Activity (PC-12)
CC(C)C1=C2C3=CC=C(C=O)C[C@H](O)[C@]3(C)CC[C@@]2(C)[C@H](O)C1 [CYRNEINE A]	3.8	–
CC(C)C1=CC(=O)[C@]2(C)CC[C@]3(C)C(=CC=C(C=O)C[C@@H]3O)[C@]12O [CYRNEINE B]	7.3	–
CC(C)C1=CC(=O)[C@]2(C)CC[C@@]3(C)C(=O)CC(C=O)=CC[C@@H]3[C@H]12 [CYRNEINE C]	2.7	inactive
CC(C)C1=CC(=O)[C@]2(C)CC[C@@]3(C)C(=O)CC(C=O)=CC[C@@H]3[C@]12O [CYRNEINE D]	1.3	inactive
CC(C)C1=CC(=O)[C@]2(C)CC[C@]3(C)C(=CC=C(C=O)C[C@@H]3O)[C@H]12 [GLAUCOPINE C]	3.5	inactive
